According to US7130746B2, “Computer systems and computer programs for determining protein activity levels using gene expression profiles” (priority 1998, dated 2006):

Tests used:
wild type yeast cells = conditions: 10 micrograms/ml doxycycline (Gari et al., 1997); cited from earlier work
yeast gene YOL031C = experiment: Transcript array gene expression response to methotrexate, Hill function fit; format: cell-based, Saccharomyces cerevisiae
Text: FIG. 2 illustrates an example of perturbation response profiles measured at discrete protein activity levels of dihydrofolate reductase. Specifically, the figure illustrates mRNA expression levels of 30 genes of the yeast Saccharomyces cerevisiae that, of the 6000 genes in the genome of this yeast, had the largest expression changes in response to six different titrations of the drug methotrexate, which is known to act primarily by disrupting the activity of dihydrofolate reductase. These gene expression level measurements were made with gene transcript arrays, as described in Section 5.5. The perturbation response profiles in FIG. 2 can be interpolated according to the methods disclosed in Section 5.4, below, to provide perturbation response profiles for any activity level of dihydrofolate reductase, i.e., perturbation response curves.
In model fitting, the perturbation responses are interpolated by approximating each by a single parameterized function. An exemplary model-fitting function appropriate for approximating transcriptional state data is the Hill function, which has adjustable parameters a, u0 and n.
[formula] the adjustable parameters are selected independently for each cellular constituent of the perturbation response. Preferably, the adjustable parameters are selected so that for each cellular constituent the sum of the squares of the distances H(pl) from Rk(pl) is minimized. This preferable parameter adjustment method is known in the art as a least squares fit of H( ) to Rk( ). Other possible model functions are based on polynomial fitting, for example by various known classes of polynomials.
Model fitting with a Hill function is illustrated with respect to FIGS. 2 and 4. As discussed, FIG. 2 illustrates an example of perturbation by methotrexate and identified by measurement. This figure illustrates the RNA expression levels of 30 genes of the yeast S. cerevisiae that, of the approximately 6000 genes in the genome of this organism, had the largest expression changes in response to six different exposure levels of methotrexate. […]

[1] = system: yeast Saccharomyces cerevisiae; experiment: Yeast growth under methotrexate titration; format: cell-based; conditions: 100 μM methotrexate titration

Compound | effect on growth rate (wild type yeast cells) | Hill function parameter n (yeast gene YOL031C; least squares fit of YOL031C expression response) | Hill function parameter a (yeast gene YOL031C; least squares fit of YOL031C expression response (log10 expression ratio)) | Hill function parameter log10(u0) (yeast gene YOL031C; least squares fit of YOL031C expression response, methotrexate exposures 3-200 μM) | growth defect [1]
C[C@H]1c2cccc(O)c2C(=O)C2=C(O)[C@]3(O)C(=O)C(C(N)=O)=C(O)[C@@H](N(C)C)[C@@H]3[C@@H](O)[C@@H]21 [doxycycline] | no significant effect |  |  |  | 
CN(Cc1cnc2nc(N)nc(N)c2n1)c1ccc(C(=O)N[C@@H](CCC(=O)O)C(=O)O)cc1 [methotrexate] |  | 2 | −0.61 | 1.26 | 50%
